Data taken from article PMC7765298, “EGFR-Binding Peptides: From Computational Design towards Tumor-Targeting of Adeno-Associated Virus Capsids” (International Journal of Molecular Sciences, 2020).

Columns and labels:
[1] = target: EGFR; conditions: dissociation constant described for EGFR-binding peptide GE11; cited from earlier work
[2] = test system: A431 cells; assay: Wound healing assay; type: cell-based; conditions: 1 nM recombinant human EGF in RPMI medium, positive control
Method: Since biophysical measurements are confounded by the intrinsic diversity of receptor conformations and imaging of moderate binding is difficult, we assessed peptide activity using a cell-based functional assay. Epidermoid tumor cell line A431 depends on EGF signaling for proliferation and migration, which can be assessed by wound healing assays monitoring the closure of a scratch in a cell lawn. A431 cells were grown to a confluent cell monolayer, serum-starved, and scratched. The resulting gap was monitored by microscopy and measured over a 6-h period (Figure 3A). As a positive, control cells were treated with 1 nM recombinant human EGF (hEGF) in RPMI medium. Cell migration in µm/h was calculated from a linear regression of the gap area over time plotted against time (Figure S6). […]
Figure 3 Effect of EGFR-directed peptides in the presence of the natural EGFR-ligand EGF in a wound healing assay with A431 cells. […] The yellow cell borders were detected by image recognition using ImageJ. […] (B) Bar chart presenting the cell migration velocity as determined from microscopy images. […]
Figure S6. […] The gap area over time is analyzed for each sample.
Areas were calculated using ImageJ. Linear regressions were calculated to determine to growth rate. […]

Substance: YHWYGYTPQNVI [GE11]
- Kd [1]: 459 µM

Substance: hEGF: recombinant human epidermal growth factor, positive control
- increase in cell migration compared to negative control (buffer) [2]: three-fold increase
